Read-outs that look alike come from different tables or passages of the source. Values belong to the molecule of their own block, whether it stands above or below them.
Key:
[1] = tested on: ductal pancreatic adenocarcinoma (CFPAC-1) cells; test: MTT proliferation assay, CFPAC-1 cells; type: cell-based, human
Method: (§1) Human carcinoma cell lines A549 (lung carcinoma), HeLa (cervical carcinoma), SW620 (colorectal adenocarcinoma, metastatic) and CFPAC-1 (pancreatic cancer, derived from metastatic: liver), and normal human foreskin (HFF-1) fibroblasts were obtained from the American Type Culture Collection (ATCC, Manassas, VA, USA). Cells were cultured in humidified atmosphere at 37 °C with 5% CO2. As growth medium, Dulbecco′s modified Eagle medium (DMEM) was used with the addition of fetal bovine serum (10%), L-glutamine (2 mM) and antibiotics: streptomycin ([…]) and penicillin (100 U/mL).
(§2) Cells were seeded onto 96-well microtiter plates at a seeding density of 3000 cells/well for carcinoma cell lines, and 5000 cells/well for normal human fibroblasts. The next day, cells were treated with test agents in five different concentrations (0.01–100 µM) and further incubated for 72 h. […] Following 72 h incubation, the MTT assay was performed and measured absorbances were transformed into percentage of cell growth as described previously. Results were obtained from three independent experiments. IC50 values were calculated using linear regression analysis and results were statistically analyzed by ANOVA, Tukey post-hoc test (p < 0.05).

[2] = tested on: cervical carcinoma (HeLa) cells; test: MTT proliferation assay, HeLa cells; type: cell-based, human; conditions: 72 h incubation
Method: as §1, §2

[3] = tested on: human tumor cell lines (A549, HeLa, CFPAC-1, SW620); test: MTT proliferation assay, all evaluated tumor cell lines; type: cell-based; conditions: read-out: antiproliferative activity (IC50) over the evaluated tumor cell lines
Method: as §1, §2

[4] = tested on: metastatic colorectal adenocarcinoma (SW620) cells; test: MTT proliferation assay, SW620 cells; type: cell-based, human
Method: as §1, §2

[5] = tested on: lung adenocarcinoma (A549) cells; test: MTT proliferation assay, A549 cells; type: cell-based, human
Method: as §1, §2

[6] = tested on: normal human foreskin fibroblasts (HFF-1); test: MTT proliferation assay, normal fibroblasts HFF-1; type: cell-based; conditions: 72 h incubation
Method: as §1, §2

CFPAC-1 cells = test: Annexin V assay for apoptosis detection; type: cell-based, human; conditions: for viability at 3.95 µM / viability at 1.58 µM: Homo sapiens, CFPAC-1, read-out: viable cells (Ann−/PI−)
Method: Cells were seeded into 8-well chambers (Lab-tek II Chamber Slides, Thermo Fisher Scientific, Waltham, MA, USA) in a concentration of 2 × 10^4 cells per well and treated with 2 × IC50 and 5 × IC50 concentrations of selected compounds for 48 and 72 h. Staining of the cells was performed by Annexin-V-FITC Staining kit (Santa Cruz Biotechnology, Dallas, TX, USA) according to the manufacturer′s instructions. Cells were visualised by fluorescent microscope (Olympus, Tokyo, Japan) at magnification of 40×.

[7] = Homo sapiens, CFPAC-1, 72 h incubation
[8] = Homo sapiens, SW-620, 72 h incubation
[9] = Homo sapiens, A549, 72 h incubation
[10] = 48 h treatment, 1.85 µM (2 × IC50)
[11] = 48 h treatment, 3.95 µM (5 × IC50)
[12] = 72 h treatment, 1.85 µM (2 × IC50)
[13] = 72 h treatment, 3.95 µM (5 × IC50)

Molecule: c1nc(N2CCCCC2)c2ccn(CCn3cc(CCCc4cn(CCn5ccc6c(N7CCCCC7)ncnc65)nn4)nn3)c2n1 [6c, 1,3-Bis{1-[2-(4-(piperidin-1-yl)-7H-pyrrolo[2,3-d]pyrimidin-7-yl)ethyl]-1H-1,2,3-triazol-4-yl}propane]
IC50 [1, 7]: 48.7 ± 1.5 µM | IC50 ([2]; Homo sapiens, HeLa): 33.7 ± 8.9 µM | IC50 ([3]; Homo sapiens): 28.2 to 65.2 µM | IC50 [4, 8]: 65.2 ± 4.8 µM | melting point: 145 to 147 °C | IC50 [5, 9]: 59.3 ± 4.9 µM

Molecule: c1nc(N2CCCC2)c2ccn(CCn3cc(COc4ccc(OCc5cn(CCn6ccc7c(N8CCCC8)ncnc76)nn5)cc4)nn3)c2n1 [7a, 1,4-Bis{[1-(2-(4-(pyrrolidin-1-yl)-7H-pyrrolo[2,3-d]pyrimidin-7-yl)ethyl)-1H-1,2,3-triazol-4-yl]methoxy}benzene]
IC50 [1, 7]: 25.8 ± 0.98 µM | IC50 [6]: 0.81 µM | IC50 ([2]; Homo sapiens, HeLa): 6.4 ± 0.35 µM | IC50 [4, 8]: 78 ± 2.1 µM | melting point: 193 to 195 °C | IC50 [5, 9]: 49.3 ± 6.4 µM

Molecule: {1-[2-(4-(Piperidin-1-yl)-7H-pyrrolo[2,3-d]pyrimidin-7-yl)ethyl]-1H-1,2,3-triazol-4-yl}methyl ether [6d]
IC50 ([1]; 72 h incubation): 37.9 ± 3.7 µM | IC50 [2]: 28.2 ± 9 µM | IC50 [3]: 28.2 to 65.2 µM | IC50 ([4]; 72 h incubation): 45.5 ± 3.3 µM | IC50 ([5]; 72 h incubation): 51.9 ± 3 µM

Continued by falling IC50 [1, 7], values first:

IC50 [1, 7]: 2.9 ± 1 µM | IC50 ([2]; Homo sapiens, HeLa): 3.9 ± 0.69 µM | IC50 [4, 8]: 23.2 ± 3.2 µM | melting point: 221 to 225 °C | IC50 [5, 9]: 9.3 ± 0.1 µM
Molecule: C#CCOc1ccc(-c2ccc(OCc3cn(CCn4cnc5c(N6CCCCC6)ncnc54)nn3)cc2)cc1 [9f, 6-(piperidin-1-yl)-9-{2-[4-(((4′-(prop-2-yn-1-yloxy)-[1,1′-biphenyl]-4-yl)oxy)methyl)-1H-1,2,3-triazol-1-yl]ethyl}-9H-purine]
IC50 [6]: 4.3 µM

IC50 [1, 7]: 0.79 ± 0.03 µM | IC50 ([2]; Homo sapiens, HeLa): 0.98 ± 0.44 µM | IC50 [4, 8]: 8 ± 1.8 µM | IC50 [5, 9]: 6.9 ± 1.1 µM
Molecule: C#CCOc1ccc(-c2ccc(OCc3cn(CCn4ccc5c(Cl)ncnc54)nn3)cc2)cc1 [5f, 4-chloro-7-{2-[4-(((4′-(prop-2-yn-1-yloxy)-[1,1′-biphenyl]-4-yl)oxy)methyl)-1H-1,2,3-triazol-1-yl]ethyl}-7H-pyrrolo[2,3-d]pyrimidine]
IC50 [6]: 0.62 µM | mode of cell death in CFPAC-1 cells (CFPAC-1 cells; 48 and 72 h, 2 × IC50 and 5 × IC50): induces apoptosis and primary necrosis in CFPAC-1 cells in a concentration- and time-dependent manner | early apoptotic cells (Ann+) (CFPAC-1 cells; [10]): 11.76 ± 3.58% | late apoptotic/primary necrotic cells (Ann+/PI+) (CFPAC-1 cells; [10]): 5.88 ± 1.44% | secondary necrotic cells (PI+) (CFPAC-1 cells; [10]): 2.72 ± 0.56% | early apoptotic cells (Ann+) (CFPAC-1 cells; [11]): 21.21 ± 1.35% | late apoptotic/primary necrotic cells (Ann+/PI+) (CFPAC-1 cells; [11]): 6.56 ± 0.24% | secondary necrotic cells (PI+) (CFPAC-1 cells; [11]): 4.05 ± 1.22% | decrease in cell viability vs control (CFPAC-1 cells; 48 h treatment, 5 × IC50): 28.4% | increase in the percentage of cells in early apoptosis vs control (CFPAC-1 cells; 48 h treatment, 5 × IC50): 21.21% | early apoptotic cells (Ann+) (CFPAC-1 cells; [12]): 30.36 ± 1.49% | late apoptotic/primary necrotic cells (Ann+/PI+) (CFPAC-1 cells; [12]): 10.71 ± 4.89% | secondary necrotic cells (PI+) (CFPAC-1 cells; [12]): 2.68 ± 0.37% | early apoptotic cells (Ann+) (CFPAC-1 cells; [13]): 39.63 ± 8.54% | late apoptotic/primary necrotic cells (Ann+/PI+) (CFPAC-1 cells; [13]): 26.14 ± 2.57% | secondary necrotic cells (PI+) (CFPAC-1 cells; [13]): 6.3 ± 2.45% | increase in early apoptotic cells vs control (CFPAC-1 cells; 72 h treatment, 2 × IC50): 24.08% | increase in early apoptotic cells vs control (CFPAC-1 cells; 72 h treatment, 5 × IC50): 33.35% | rise in late apoptotic/primary necrotic cells vs control (CFPAC-1 cells; 72 h treatment, 5 × IC50): 26.14% | viability at 3.95 µM (CFPAC-1 cells; [11]): 68.2 ± 0.94% | viability at 1.58 µM (CFPAC-1 cells; 48 h treatment): 79.6 ± 2.57% | viability at 3.95 µM (CFPAC-1 cells; [13]): 27.9 ± 3.23% | viability at 1.58 µM (CFPAC-1 cells; 72 h treatment): 56.2 ± 6.56%

— publication PMC8199500, “Novel Bis- and Mono-Pyrrolo[2,3-d]pyrimidine and Purine Derivatives: Synthesis, Computational Analysis and Antiproliferative Evaluation” (Molecules, 2021)
